Source: patent US8835476B2, “Synthesis of novel antimicrobials” (priority 2005, dated 2014)
Like-named read-outs stand apart in the source and are kept apart here.

How the values were obtained:
Format in all cases: cell-based
P. rettgeri CAP = experiment: Broth microdilution MIC, reference strains; conditions: Providencia rettgeri, read-out: MIC (growth inhibition, microdilution method)
From the text: (§1) All clinical isolates tested were from The North American Urinary Tract Infection Collaborative Alliance (NAUTICA) which is a UTI surveillance study involving 40 medical centres (30 from the US and 10 from Canada). Each centre submitted up to 50 consecutive outpatient midstream urine isolates. All isolates were deemed significant urinary tract pathogens by individual laboratory criteria and identified to the species level by each laboratory's existing protocol. Isolates were transported to the coordinating laboratory (Health Sciences Centre, Winnipeg, Canada) on charcoal swabs. Only one isolate per patient was accepted. Upon receipt, isolates were cultured by the coordinating laboratory, stocked in skim milk, and stored at −80° C. awaiting reference antibiotic susceptibility testing. Elementary demographic information was also compiled for each isolate. Isolates were selected randomly from the above pool to represent 18 different species of Enterobacteriaceae and non-Enterobacteriaceae. An average of 5 strains of each species were tested for a total of 93 organisms. In addition, 23 reference (ATCC) [both gram negative and gram positive] strains were tested.
(§2) Susceptibilities to the compounds were determined using the National Committee for Clinical Laboratory Standards (NCCLS) M7-A6 broth microdilution method. […] DMSO controls were incorporated into the panel to mimic the quantity of DMSO used in dissolving some of the compounds at the higher concentrations. Each final panel well volume was 100 μl with a bacterial inoculum of 5×10^5 colony forming units (CFU)/ml. Panels were read following 16 to 20 hours of incubation at 35° C. in ambient air. The minimum inhibitory concentration (MIC) was defined as the lowest concentration of antimicrobial inhibiting visible growth. Quality control (QC) was performed using four ATCC QC organisms that were run with every batch set up to insure reproducibility.

[1] = test system: S. maltophilia ATCC 13637; experiment: Broth microdilution MIC, ATCC strains; conditions: Stenotrophomonas maltophilia
From the text: as §1, §2

E. aerogenes ATCC 13048 = experiment: Broth microdilution MIC, ATCC strains; conditions: Klebsiella aerogenes
From the text: as §1, §2

[2] = test system: Ps. aeruginosa ATCC 27853; experiment: Broth microdilution MIC, ATCC strains; conditions: for MIC: Pseudomonas aeruginosa
From the text: as §1, §2

S. aureus ATCC 29213 = experiment: Broth microdilution MIC, ATCC strains; conditions: Staphylococcus aureus, ATCC29213, S. aureus ATCC 29213; read-out: MIC (growth inhibition, microdilution method)
From the text: as §1, §2

Pr. stuartii ATCC 33672 = experiment: Broth microdilution MIC, ATCC strains; conditions: Providencia stuartii
From the text: as §1, §2

[3] = test system: S. epidermidis ATCC 14990; experiment: Broth microdilution MIC, ATCC strains; conditions: Staphylococcus epidermidis, ATCC14990; S. epidermidis ATCC 14990; read-out: MIC (growth inhibition, microdilution method)
From the text: as §1, §2

MRSA ATCC 33591 = experiment: Broth microdilution MIC, ATCC strains; conditions: Staphylococcus aureus; MRSA ATCC 33591; read-out: MIC (growth inhibition, microdilution method)
From the text: as §1, §2

S. marcescens ATCC 8100 = experiment: Broth microdilution MIC, ATCC strains; conditions: Serratia marcescens
From the text: as §1, §2

K. oxytoca ATCC 49131 = experiment: Broth microdilution MIC, ATCC strains; conditions: Klebsiella oxytoca
From the text: as §1, §2

B. cepacia ATCC 25416 = experiment: Broth microdilution MIC, ATCC strains; conditions: Burkholderia cepacia
From the text: as §1, §2

E. faecalis ATCC 29212 = experiment: Broth microdilution MIC, ATCC strains; conditions: for MIC: Enterococcus faecalis, read-out: MIC (growth inhibition, microdilution method)
From the text: as §1, §2

P. mirabilis ATCC 29245 = experiment: Broth microdilution MIC, ATCC strains; conditions: Proteus mirabilis
From the text: as §1, §2

S. warneri ATCC 27836 = experiment: Broth microdilution MIC, ATCC strains; conditions: Staphylococcus warneri, ATCC27836; S. warneri ATCC 27836; read-out: MIC (growth inhibition, microdilution method)
From the text: as §1, §2

[4] = test system: S. saprophyticus ATCC 15305; experiment: Broth microdilution MIC, ATCC strains; conditions: Staphylococcus saprophyticus, ATCC15305; S. saprophyticus ATCC 15305; read-out: MIC (growth inhibition, microdilution method)
From the text: as §1, §2

S. simulans ATCC 27848 = experiment: Broth microdilution MIC, ATCC strains; conditions: Staphylococcus simulans, ATCC27848, read-out: MIC (growth inhibition, microdilution method)
From the text: as §1, §2

E. faecium ATCC 35667 = experiment: Broth microdilution MIC, ATCC strains; conditions: Enterococcus faecium, ATCC35667, read-out: MIC (growth inhibition, microdilution method)
From the text: as §1, §2

K. pneumoniae ATCC 13883 = experiment: Broth microdilution MIC, ATCC strains; conditions: Klebsiella pneumoniae
From the text: as §1, §2

P. vulgaris ATCC 49132 = experiment: Broth microdilution MIC, ATCC strains; conditions: Proteus vulgaris
From the text: as §1, §2

E. coli ATCC 25922 = experiment: Broth microdilution MIC, ATCC strains; conditions: for MIC: Escherichia coli
From the text: as §1, §2

E. cloacae ATCC 23355 = experiment: Broth microdilution MIC, ATCC strains; conditions: Enterobacter cloacae
From the text: as §1, §2

A. anitratus ATCC 19606 = experiment: Broth microdilution MIC, ATCC strains; conditions: Acinetobacter calcoaceticus
From the text: as §1, §2

[5] = ATCC13637, S. maltophilia ATCC 13637, read-out: MIC (growth inhibition, microdilution method)
[6] = ATCC13048, E. aerogenes ATCC 13048, read-out: MIC (growth inhibition, microdilution method)
[7] = ATCC27853, Ps. aeruginosa ATCC 27853, read-out: MIC (growth inhibition, microdilution method)
[8] = ATCC33672, Pr. stuartii ATCC 33672, read-out: MIC (growth inhibition, microdilution method)
[9] = ATCC8100, S. marcescens ATCC 8100, read-out: MIC (growth inhibition, microdilution method)
[10] = ATCC49131, K. oxytoca ATCC 49131, read-out: MIC (growth inhibition, microdilution method)
[11] = ATCC25416, B. cepacia ATCC 25416, read-out: MIC (growth inhibition, microdilution method)
[12] = ATCC29212, E. faecalis ATCC 29212
[13] = ATCC29212, E. faecalis, ATCC number not given
[14] = ATCC29245, P. mirabilis ATCC 29245, read-out: MIC (growth inhibition, microdilution method)
[15] = ATCC13883, K. pneumoniae ATCC 13883, read-out: MIC (growth inhibition, microdilution method)
[16] = ATCC49132, P. vulgaris ATCC 49132, read-out: MIC (growth inhibition, microdilution method)
[17] = ATCC25922, E. coli ATCC 25922, read-out: MIC (growth inhibition, microdilution method)
[18] = ATCC23355, E. cloacae ATCC 23355, read-out: MIC (growth inhibition, microdilution method)
[19] = ATCC19606, A. anitratus ATCC 19606, read-out: MIC (growth inhibition, microdilution method)

Cn1nnnc1-c1cc(-c2ccc(F)cc2)sc1C(=O)O [DNM-143, 5-(4-Fluoro-phenyl)-3-(1-methyl-1H-tetrazol-5-yl)-thiophene-2-carboxylic acid]
> 8 µg/mL: MIC (P. rettgeri CAP; P. rettgeri (CAP in Table 1)) | MIC [1, 5] | MIC (E. aerogenes ATCC 13048; [6]) | MIC [2, 7] | MIC (S. aureus ATCC 29213) | MIC (Pr. stuartii ATCC 33672; [8]) | MIC [3] | MIC (MRSA ATCC 33591) | MIC (S. marcescens ATCC 8100; [9]) | MIC (K. oxytoca ATCC 49131; [10]) | MIC (B. cepacia ATCC 25416; [11]) | MIC (E. faecalis ATCC 29212; [12]) | MIC (E. faecalis ATCC 29212; [13]) | MIC (P. mirabilis ATCC 29245; [14]) | MIC (S. warneri ATCC 27836) | MIC [4] | MIC (S. simulans ATCC 27848) | MIC (E. faecium ATCC 35667) | MIC (K. pneumoniae ATCC 13883; [15]) | MIC (P. vulgaris ATCC 49132; [16]) | MIC (E. coli ATCC 25922; [17]) | MIC (E. cloacae ATCC 23355; [18]) | MIC (A. anitratus ATCC 19606; [19])

Cn1nnc(-c2cc(C(=O)O)sc2C(=O)O)n1 [DNM-112, 3-(2-Methyl-2H-tetrazol-5-yl)-thiophene-2,5-dicarboxylic acid]
> 256 µg/mL: MIC (P. rettgeri CAP) | MIC ([1]; ATCC13637, read-out: MIC (growth inhibition, microdilution method)) | MIC (E. aerogenes ATCC 13048; ATCC13048, read-out: MIC (growth inhibition, microdilution method)) | MIC ([2]; ATCC27853, read-out: MIC (growth inhibition, microdilution method), Ps. aeruginosa ATCC 27853) | MIC (Pr. stuartii ATCC 33672; ATCC33672, read-out: MIC (growth inhibition, microdilution method)) | MIC (S. marcescens ATCC 8100; ATCC8100, read-out: MIC (growth inhibition, microdilution method)) | MIC (K. oxytoca ATCC 49131; ATCC49131, read-out: MIC (growth inhibition, microdilution method)) | MIC (B. cepacia ATCC 25416; ATCC25416, read-out: MIC (growth inhibition, microdilution method)) | MIC (P. mirabilis ATCC 29245; ATCC29245, read-out: MIC (growth inhibition, microdilution method)) | MIC (K. pneumoniae ATCC 13883; ATCC13883, read-out: MIC (growth inhibition, microdilution method)) | MIC (P. vulgaris ATCC 49132; ATCC49132, read-out: MIC (growth inhibition, microdilution method)) | MIC (E. coli ATCC 25922; ATCC25922, read-out: MIC (growth inhibition, microdilution method)) | MIC (E. cloacae ATCC 23355; ATCC23355, read-out: MIC (growth inhibition, microdilution method)) | MIC (A. anitratus ATCC 19606; ATCC19606, read-out: MIC (growth inhibition, microdilution method))
64 µg/mL: MIC (S. warneri ATCC 27836) | MIC [4]
16 µg/mL: MIC (S. aureus ATCC 29213) | MIC [3] | MIC (MRSA ATCC 33591)
8 µg/mL: MIC (E. faecalis ATCC 29212; [12]) | MIC (E. faecalis ATCC 29212; [13]) | MIC (S. simulans ATCC 27848) | MIC (E. faecium ATCC 35667)

Cn1nnc(-c2cc(C(=O)O)sc2-c2ccc(F)cc2)n1 [DNM-123, 5-(4-fluorophenyl)-4-(2-methyl-2H-tetrazol-5-yl)thiophene-2-carboxylic acid]
8 µg/mL: MIC (E. aerogenes ATCC 13048; [6]) | MIC (growth inhibition, microdilution method) ([2]; Ps. aeruginosa ATCC 27853) | MIC [2, 7] | MIC (S. marcescens ATCC 8100; [9]) | MIC (growth inhibition, microdilution method) (E. faecalis ATCC 29212; E. faecalis ATCC 29212) | MIC (growth inhibition, microdilution method) (E. faecalis ATCC 29212; E. faecalis, ATCC number not given) | MIC (E. faecalis ATCC 29212; [12]) | MIC (E. faecalis ATCC 29212; [13]) | MIC (E. faecium ATCC 35667) | MIC (K. pneumoniae ATCC 13883; [15]) | MIC (growth inhibition, microdilution method) (E. coli ATCC 25922; E. coli ATCC 25922) | MIC (E. coli ATCC 25922; [17]) | MIC (E. cloacae ATCC 23355; [18])
> 8 µg/mL: MIC (P. rettgeri CAP; P. rettgeri (CAP in Table 1)) | MIC (S. aureus ATCC 29213) | MIC (Pr. stuartii ATCC 33672; [8]) | MIC (MRSA ATCC 33591) | MIC (K. oxytoca ATCC 49131; [10]) | MIC (P. mirabilis ATCC 29245; [14]) | MIC (S. warneri ATCC 27836) | MIC [4] | MIC (S. simulans ATCC 27848) | MIC (P. vulgaris ATCC 49132; [16])
4 µg/mL: MIC [3]
≤ 0.5 µg/mL: MIC [1, 5] | MIC (B. cepacia ATCC 25416; [11]) | MIC (A. anitratus ATCC 19606; [19])
